Source: ChEMBL document CHEMBL3872214, “Synthesis and evaluation of in vivo antioxidant, in vitro antibacterial, MRSA and antifungal activity of novel substituted isatin N-(2,3,4,6-tetra-O-acetyl-β-d-glucopyranosyl)thiosemicarbazones” (Eur J Med Chem, 2016)
Converted amounts (≈) assume the structure as drawn.

Tested on: Staphylococcus epidermidis
Assay: Antibacterial activity against Staphylococcus epidermidis ATCC 12228 after 18 to 20 hrs by two-fold microbroth dilution method
Type: functional
Conditions: not given

| Compound | MIC [µM] |
| --- | --- |
| CC(=O)OC[C@H]1O[C@@H](NC(=S)N/N=C2/C(=O)Nc3ccc(C)cc32)[C@H](OC(C)=O)[C@@H](OC(C)=O)[C@@H]1OC(C)=O | 12.5 (≈ 7.06 µg/mL) |
| CC(=O)OC[C@H]1O[C@@H](NC(=S)N/N=C2/C(=O)Nc3ccc([N+](=O)[O-])cc32)[C@H](OC(C)=O)[C@@H](OC(C)=O)[C@@H]1OC(C)=O | 100 (≈ 59.6 µg/mL) |

Tested on: Rattus norvegicus
Assay: (§1) Antioxidant activity in CCL4-intoxicated Wistar albino rat assessed as liver cytosolic glutathione peroxidase activity per mg protein at 100 mg/kg, ip administered for 7 consecutive days after DL-alpha-tocopherol acetate treatment followed by CCL4 dosing measured after 24 hrs by H2O2 based spectrophotometric analysis (reference value: 0.28 +/- 0.01 U)
Type: functional
Conditions: not given

| Compound | Activity [U] |
| --- | --- |
| CC(=O)OC[C@H]1O[C@@H](NC(=S)N/N=C2/C(=O)Nc3ccc(C)cc32)[C@H](OC(C)=O)[C@@H](OC(C)=O)[C@@H]1OC(C)=O | 1.7 |
| CC(=O)OC[C@H]1O[C@@H](NC(=S)N/N=C2/C(=O)Nc3ccc([N+](=O)[O-])cc32)[C@H](OC(C)=O)[C@@H](OC(C)=O)[C@@H]1OC(C)=O | 1.89 |

Tested on: Escherichia coli
Assay: Antibacterial activity against Escherichia coli ATCC 25922 after 18 to 20 hrs by two-fold microbroth dilution method
Type: functional
Conditions: not given

| Compound | MIC [µM] |
| --- | --- |
| CC(=O)OC[C@H]1O[C@@H](NC(=S)N/N=C2/C(=O)Nc3ccc(C)cc32)[C@H](OC(C)=O)[C@@H](OC(C)=O)[C@@H]1OC(C)=O | 25 (≈ 14.1 µg/mL) |
| CC(=O)OC[C@H]1O[C@@H](NC(=S)N/N=C2/C(=O)Nc3ccc([N+](=O)[O-])cc32)[C@H](OC(C)=O)[C@@H](OC(C)=O)[C@@H]1OC(C)=O | 50 (≈ 29.8 µg/mL) |

Tested on: not listed separately
Assay: Antifungal activity against Saccharomyces cerevisiae SH20 after 72 hrs by agar dilution method
Type: functional
Conditions: not given

| Compound | MIC [µM] |
| --- | --- |
| CC(=O)OC[C@H]1O[C@@H](NC(=S)N/N=C2/C(=O)Nc3ccc(C)cc32)[C@H](OC(C)=O)[C@@H](OC(C)=O)[C@@H]1OC(C)=O | 25 (≈ 14.1 µg/mL) |
| CC(=O)OC[C@H]1O[C@@H](NC(=S)N/N=C2/C(=O)Nc3ccc([N+](=O)[O-])cc32)[C@H](OC(C)=O)[C@@H](OC(C)=O)[C@@H]1OC(C)=O | 100 (≈ 59.6 µg/mL) |

Tested on: Aspergillus niger
Assay: Antifungal activity against Aspergillus niger 439 after 72 hrs by agar dilution method
Type: functional
Conditions: Aspergillus niger, 439, 72 h

| Compound | MIC [µM] |
| --- | --- |
| CC(=O)OC[C@H]1O[C@@H](NC(=S)N/N=C2/C(=O)Nc3ccc(C)cc32)[C@H](OC(C)=O)[C@@H](OC(C)=O)[C@@H]1OC(C)=O | 100 (≈ 56.5 µg/mL) |
| CC(=O)OC[C@H]1O[C@@H](NC(=S)N/N=C2/C(=O)Nc3ccc([N+](=O)[O-])cc32)[C@H](OC(C)=O)[C@@H](OC(C)=O)[C@@H]1OC(C)=O | 100 (≈ 59.6 µg/mL) |

Tested on: Candida albicans
Assay: Antifungal activity against Candida albicans ATCC 7754 after 72 hrs by agar dilution method
Type: functional
Conditions: ATCC 7754, 72 h

| Compound | MIC [µM] |
| --- | --- |
| CC(=O)OC[C@H]1O[C@@H](NC(=S)N/N=C2/C(=O)Nc3ccc(C)cc32)[C@H](OC(C)=O)[C@@H](OC(C)=O)[C@@H]1OC(C)=O | 100 (≈ 56.5 µg/mL) |
| CC(=O)OC[C@H]1O[C@@H](NC(=S)N/N=C2/C(=O)Nc3ccc([N+](=O)[O-])cc32)[C@H](OC(C)=O)[C@@H](OC(C)=O)[C@@H]1OC(C)=O | 100 (≈ 59.6 µg/mL) |

Tested on: Klebsiella pneumoniae
Assay: Antibacterial activity against Klebsiella pneumoniae ATCC 4352 after 18 to 20 hrs by two-fold microbroth dilution method
Type: functional
Conditions: not given

| Compound | MIC [µM] |
| --- | --- |
| CC(=O)OC[C@H]1O[C@@H](NC(=S)N/N=C2/C(=O)Nc3ccc(C)cc32)[C@H](OC(C)=O)[C@@H](OC(C)=O)[C@@H]1OC(C)=O | 25 (≈ 14.1 µg/mL) |
| CC(=O)OC[C@H]1O[C@@H](NC(=S)N/N=C2/C(=O)Nc3ccc([N+](=O)[O-])cc32)[C@H](OC(C)=O)[C@@H](OC(C)=O)[C@@H]1OC(C)=O | 50 (≈ 29.8 µg/mL) |

Tested on: Pseudomonas aeruginosa
Assay: Antibacterial activity against Pseudomonas aeruginosa […] after 18 to 20 hrs by two-fold microbroth dilution method
Type: functional
Conditions: not given

| Compound | MIC [µM] |
| --- | --- |
| CC(=O)OC[C@H]1O[C@@H](NC(=S)N/N=C2/C(=O)Nc3ccc(C)cc32)[C@H](OC(C)=O)[C@@H](OC(C)=O)[C@@H]1OC(C)=O | 25 (≈ 14.1 µg/mL) |
| CC(=O)OC[C@H]1O[C@@H](NC(=S)N/N=C2/C(=O)Nc3ccc([N+](=O)[O-])cc32)[C@H](OC(C)=O)[C@@H](OC(C)=O)[C@@H]1OC(C)=O | 50 (≈ 29.8 µg/mL) |

Tested on: Rattus norvegicus
Assay: as §1, with “catalase” for “glutathione peroxidase”, “assay” for “spectrophotometric analysis”, “220.15” for “0.28”, “11.43” for “0.01”
Type: functional
Conditions: not given

| Compound | Activity [U] |
| --- | --- |
| CC(=O)OC[C@H]1O[C@@H](NC(=S)N/N=C2/C(=O)Nc3ccc(C)cc32)[C@H](OC(C)=O)[C@@H](OC(C)=O)[C@@H]1OC(C)=O | 258.47 |
| CC(=O)OC[C@H]1O[C@@H](NC(=S)N/N=C2/C(=O)Nc3ccc([N+](=O)[O-])cc32)[C@H](OC(C)=O)[C@@H](OC(C)=O)[C@@H]1OC(C)=O | 283.53 |

Tested on: Klebsiella aerogenes
Assay: Antibacterial activity against Enterobacter aerogenes ATCC 13048 after 18 to 20 hrs by two-fold microbroth dilution method
Type: functional
Conditions: not given

| Compound | MIC [µM] |
| --- | --- |
| CC(=O)OC[C@H]1O[C@@H](NC(=S)N/N=C2/C(=O)Nc3ccc(C)cc32)[C@H](OC(C)=O)[C@@H](OC(C)=O)[C@@H]1OC(C)=O | 25 (≈ 14.1 µg/mL) |
| CC(=O)OC[C@H]1O[C@@H](NC(=S)N/N=C2/C(=O)Nc3ccc([N+](=O)[O-])cc32)[C@H](OC(C)=O)[C@@H](OC(C)=O)[C@@H]1OC(C)=O | 50 (≈ 29.8 µg/mL) |

Tested on: Rattus norvegicus
Assay: as §1, with “superoxide dismutase” for “glutathione peroxidase”, “xanthine” for “H2O2”, “assay” for “spectrophotometric analysis”, “5.27” for “0.28”, “0.22” for “0.01”
Type: functional
Conditions: not given

| Compound | Activity [U] |
| --- | --- |
| CC(=O)OC[C@H]1O[C@@H](NC(=S)N/N=C2/C(=O)Nc3ccc(C)cc32)[C@H](OC(C)=O)[C@@H](OC(C)=O)[C@@H]1OC(C)=O | 5.91 |
| CC(=O)OC[C@H]1O[C@@H](NC(=S)N/N=C2/C(=O)Nc3ccc([N+](=O)[O-])cc32)[C@H](OC(C)=O)[C@@H](OC(C)=O)[C@@H]1OC(C)=O | 6.45 |

Tested on: Staphylococcus aureus
Assay: Antibacterial activity against Staphylococcus aureus ATCC 11632 after 18 to 20 hrs by two-fold microbroth dilution method
Type: functional
Conditions: not given

| Compound | MIC [µM] |
| --- | --- |
| CC(=O)OC[C@H]1O[C@@H](NC(=S)N/N=C2/C(=O)Nc3ccc(C)cc32)[C@H](OC(C)=O)[C@@H](OC(C)=O)[C@@H]1OC(C)=O | 12.5 (≈ 7.06 µg/mL) |
| CC(=O)OC[C@H]1O[C@@H](NC(=S)N/N=C2/C(=O)Nc3ccc([N+](=O)[O-])cc32)[C@H](OC(C)=O)[C@@H](OC(C)=O)[C@@H]1OC(C)=O | 200 (≈ 119 µg/mL) |

Tested on: not listed separately
Assay: Antifungal activity against Fusarium oxysporum M42 after 72 hrs by agar dilution method
Type: functional
Conditions: not given

| Compound | MIC [µM] |
| --- | --- |
| CC(=O)OC[C@H]1O[C@@H](NC(=S)N/N=C2/C(=O)Nc3ccc(C)cc32)[C@H](OC(C)=O)[C@@H](OC(C)=O)[C@@H]1OC(C)=O | 100 (≈ 56.5 µg/mL) |
| CC(=O)OC[C@H]1O[C@@H](NC(=S)N/N=C2/C(=O)Nc3ccc([N+](=O)[O-])cc32)[C@H](OC(C)=O)[C@@H](OC(C)=O)[C@@H]1OC(C)=O | 100 (≈ 59.6 µg/mL) |

Tested on: Staphylococcus aureus
Assay: Antibacterial activity against methicillin-resistant Staphylococcus aureus 198-1 after 18 to 20 hrs by two-fold microbroth dilution method
Type: functional
Conditions: not given

| Compound | MIC [µM] |
| --- | --- |
| CC(=O)OC[C@H]1O[C@@H](NC(=S)N/N=C2/C(=O)Nc3ccc(C)cc32)[C@H](OC(C)=O)[C@@H](OC(C)=O)[C@@H]1OC(C)=O | 12.5 (≈ 7.06 µg/mL) |
| CC(=O)OC[C@H]1O[C@@H](NC(=S)N/N=C2/C(=O)Nc3ccc([N+](=O)[O-])cc32)[C@H](OC(C)=O)[C@@H](OC(C)=O)[C@@H]1OC(C)=O | 200 (≈ 119 µg/mL) |

Tested on: Staphylococcus aureus
Assay: Antibacterial activity against methicillin-resistant Staphylococcus aureus 198-2 after 18 to 20 hrs by two-fold microbroth dilution method
Type: functional
Conditions: not given

| Compound | MIC [µM] |
| --- | --- |
| CC(=O)OC[C@H]1O[C@@H](NC(=S)N/N=C2/C(=O)Nc3ccc(C)cc32)[C@H](OC(C)=O)[C@@H](OC(C)=O)[C@@H]1OC(C)=O | 12.5 (≈ 7.06 µg/mL) |
| CC(=O)OC[C@H]1O[C@@H](NC(=S)N/N=C2/C(=O)Nc3ccc([N+](=O)[O-])cc32)[C@H](OC(C)=O)[C@@H](OC(C)=O)[C@@H]1OC(C)=O | 200 (≈ 119 µg/mL) |

Tested on: Staphylococcus aureus
Assay: Antibacterial activity against methicillin-resistant Staphylococcus aureus 198-3 after 18 to 20 hrs by two-fold microbroth dilution method
Type: functional
Conditions: not given

| Compound | MIC [µM] |
| --- | --- |
| CC(=O)OC[C@H]1O[C@@H](NC(=S)N/N=C2/C(=O)Nc3ccc(C)cc32)[C@H](OC(C)=O)[C@@H](OC(C)=O)[C@@H]1OC(C)=O | 12.5 (≈ 7.06 µg/mL) |
| CC(=O)OC[C@H]1O[C@@H](NC(=S)N/N=C2/C(=O)Nc3ccc([N+](=O)[O-])cc32)[C@H](OC(C)=O)[C@@H](OC(C)=O)[C@@H]1OC(C)=O | 200 (≈ 119 µg/mL) |

Tested on: Bacillus subtilis
Assay: Antibacterial activity against Bacillus subtilis ATCC 11774 after 18 to 20 hrs by two-fold microbroth dilution method
Type: functional
Conditions: not given

| Compound | MIC [µM] |
| --- | --- |
| CC(=O)OC[C@H]1O[C@@H](NC(=S)N/N=C2/C(=O)Nc3ccc(C)cc32)[C@H](OC(C)=O)[C@@H](OC(C)=O)[C@@H]1OC(C)=O | 25 (≈ 14.1 µg/mL) |
| CC(=O)OC[C@H]1O[C@@H](NC(=S)N/N=C2/C(=O)Nc3ccc([N+](=O)[O-])cc32)[C@H](OC(C)=O)[C@@H](OC(C)=O)[C@@H]1OC(C)=O | 100 (≈ 59.6 µg/mL) |
